Experimental data published in patent US20240150362A1, “Substituted Pyrrolotriazines” (Molecure S.A., priority 2022, published 2024).
Structures can show the parent of a compound that is named as a salt.

The compounds below were run against T1, full-length USP7 (Homo sapiens, UniProt Q93009) (assay: Enzymatic assay to determine % inhibition of USP7 activity at 1 μM test compound (Ubiquitin-Rhodamine 110 cleavage)). Details: 1 μM of the test compound; given where IC50 has not been determined yet; mean of two repetitions.
T1 construct: A 45 μl reaction volume containing full-length USP7 (0.5-1.0 nM)
Format: biochemical
Procedure: Enzymatic Assay to Determine % Value of Inhibition […] Activity at 1 μM […]
A 45 μl reaction volume containing full-length USP7 (0.5-1.0 nM) in 50 mM HEPES pH 7.5, 150 mM NaCl, 2 mM DTT, 1 mg/ml BSA and 0.05% Tween20 (DUB assay buffer) was assembled in wells of 96 well half area black flat bottom plates. All test compounds were first dissolved to 30 mM stocks in DMSO and subsequently introduced to enzyme 15 min after USP7 incubation with DTT at room temperature. The final concentration of tested compounds was 1 μM. The enzymatic reaction was started by adding 0.5 μM Ubiquitin-Rhodamine 110 (final concentration) and allowed to proceed for 30-60 min at 25° C., 250 RPM shaking before Rhodamine fluorescence (485 nm excitation/535 nm emission) was measured using Tecan Spark M10 plate reader. Percentage of inhibition at 1 μM was determined by the mean of two repetitions for these concentrations using Microsoft Excel software.

T1 sequence (Q93009 whole entry): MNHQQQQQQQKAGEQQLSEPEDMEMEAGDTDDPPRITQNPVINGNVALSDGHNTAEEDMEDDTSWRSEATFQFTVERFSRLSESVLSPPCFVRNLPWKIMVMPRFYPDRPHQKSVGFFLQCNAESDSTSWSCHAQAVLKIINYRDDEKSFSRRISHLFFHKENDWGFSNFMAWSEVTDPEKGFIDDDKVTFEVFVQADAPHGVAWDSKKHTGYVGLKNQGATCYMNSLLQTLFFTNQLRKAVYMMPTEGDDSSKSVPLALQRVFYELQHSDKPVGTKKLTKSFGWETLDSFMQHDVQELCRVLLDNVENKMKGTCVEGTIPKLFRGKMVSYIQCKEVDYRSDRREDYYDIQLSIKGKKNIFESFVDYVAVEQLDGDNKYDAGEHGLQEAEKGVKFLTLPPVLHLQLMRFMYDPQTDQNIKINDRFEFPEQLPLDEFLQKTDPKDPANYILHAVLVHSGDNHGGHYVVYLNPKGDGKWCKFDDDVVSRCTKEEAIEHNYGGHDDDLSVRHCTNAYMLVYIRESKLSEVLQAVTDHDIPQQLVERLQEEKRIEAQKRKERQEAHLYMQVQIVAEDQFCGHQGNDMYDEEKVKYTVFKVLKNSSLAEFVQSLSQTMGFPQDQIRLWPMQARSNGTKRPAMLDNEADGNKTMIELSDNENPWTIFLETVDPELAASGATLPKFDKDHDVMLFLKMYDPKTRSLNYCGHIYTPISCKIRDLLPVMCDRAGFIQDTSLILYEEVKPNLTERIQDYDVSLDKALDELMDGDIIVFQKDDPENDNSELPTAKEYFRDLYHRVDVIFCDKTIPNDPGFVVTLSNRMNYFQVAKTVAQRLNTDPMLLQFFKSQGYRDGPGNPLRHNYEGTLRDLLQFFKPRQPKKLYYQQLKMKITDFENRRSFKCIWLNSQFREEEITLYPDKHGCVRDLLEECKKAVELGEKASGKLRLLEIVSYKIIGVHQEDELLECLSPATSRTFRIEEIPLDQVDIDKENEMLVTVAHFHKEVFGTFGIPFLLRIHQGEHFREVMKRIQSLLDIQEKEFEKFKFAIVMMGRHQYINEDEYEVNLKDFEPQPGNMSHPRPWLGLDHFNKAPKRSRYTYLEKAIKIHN

Row | inhibition at 1 µM | Structure (SMILES)
1 | 20 to 49% | CC1(C)C2C(=O)N(Cc3cc4c(-c5cc(Cl)cc6c5N(C[C@@H]5CNCCO5)CCC6)ncnn4c3)C(=O)C21 (stereo partly drawn) [Example 65, 3-((4-(6-chloro-1-(((S)-morpholin-2-yl)methyl)-1,2,3,4-tetrahydroquinolin-8-yl)pyrrolo[2,1-f][1,2,4]triazin-6-yl)methyl)-6,6-dimethyl-3-azabicyclo[3.1.0]hexane-2,4-dione hydrochloride]
2 | < 20% | CC1(C)C2C(=O)N(Cc3cc4c(-c5cc(Cl)ccc5N5CC6CNCC6C5)ncnn4c3)C(=O)C21 (stereo not shown) [Example 97, 3-((4-(5-chloro-2-(hexahydropyrrolo[3,4-c]pyrrol-2(1H)-yl)phenyl)pyrrolo[2,1-f][1,2,4]triazin-6-yl)methyl)-6,6-dimethyl-3-azabicyclo[3.1.0]hexane-2,4-dione hydrochloride]
3 | 20 to 49% | Cc1cc(Cl)cc(-c2ncnn3cc(CN4C(=O)C5C(C4=O)C5(C)C)cc23)c1C(=O)N1CC(F)(F)C1 (stereo not shown) [Example 8, 3-((4-(5-chloro-2-(3,3-difluoroazetidine-1-carbonyl)-3-methylphenyl)pyrrolo[2,1-f][1,2,4]triazin-6-yl)methyl)-6,6-dimethyl-3-azabicyclo[3.1.0]hexane-2,4-dione hydrochloride]
4 | > 70% | O=c1ccn(CC(F)(F)F)c(=O)n1Cc1cc2c(-c3cc(Cl)cc4c3N(C3CCNC3)CCC4)ncnn2c1 (stereo not shown) [Example 64, 3-((4-(6-chloro-1-(pyrrolidin-3-yl)-1,2,3,4-tetrahydroquinolin-8-yl)pyrrolo[2,1-f][1,2,4]triazin-6-yl)methyl)-1-(2,2,2-trifluoroethyl)pyrimidine-2,4(1H,3H)-dione hydrochloride]
5 | < 20% | Cc1cc(Cl)cc(-c2ncnn3cc(Cn4cc(F)c(=O)n(C)c4=O)cc23)c1C[C@@H]1CNCCO1 (single isomer, unassigned) [Example 98, hydrochloride]
6 | < 20% | Cc1cc(Cl)cc(-c2ncnn3cc(CN4C(=O)C5C(C4=O)C5(C)C)cc23)c1O[C@@H]1CN[C@H](C(=O)O)C1 (stereo partly drawn) [Example 7, (2S,4S)-4-(4-chloro-2-(6-((6,6-dimethyl-2,4-dioxo-3-azabicyclo[3.1.0]hexan-3-yl)methyl)pyrrolo[2,1-f][1,2,4]triazin-4-yl)-6-methylphenoxy)pyrrolidine-2-carboxylic acid hydrochloride]
7 | 20 to 49% | Cc1cc(Cl)cc(-c2ncnn3cc(CN4C(=O)C5C(C4=O)C5(C)C)cc23)c1OC[C@H]1CNCCO1 (stereo partly drawn) [Example 52, 3-((4-(5-chloro-3-methyl-2-(((R)-morpholin-2-yl)methoxy)phenyl)pyrrolo[2,1-f][1,2,4]triazin-6-yl)methyl)-6,6-dimethyl-3-azabicyclo[3.1.0]hexane-2,4-dione hydrochloride]
8 | 20 to 49% | CCOC(=O)c1cc2c(-c3cc(Cl)cc(C)c3O[C@H]3CCCNC3)ncnn2c1 [Example 15, ethyl (S)-4-(5-chloro-3-methyl-2-(piperidin-3-yloxy)phenyl)pyrrolo[2,1-f][1,2,4]triazine-6-carboxylate hydrochloride]
9 | < 20% | Cc1cc(Cl)cc(-c2ncnn3cc(CO)cc23)c1O[C@H]1CCCNC1 [Example 17, (S)-(4-(5-chloro-3-methyl-2-(piperidin-3-yloxy)phenyl)pyrrolo[2,1-f][1,2,4]triazin-6-yl)methanol hydrochloride]
10 | 20 to 49% | CC1(C)C2C(=O)N(Cc3cc4c(-c5cc(Cl)ccc5N5CCC6(CCCN6)C5)ncnn4c3)C(=O)C21 (stereo not shown) [Example 91, 3-((4-(5-chloro-2-(1,7-diazaspiro[4.4]nonan-7-yl)phenyl)pyrrolo[2,1-f][1,2,4]triazin-6-yl)methyl)-6,6-dimethyl-3-azabicyclo[3.1.0]hexane-2,4-dione hydrochloride]
11 | < 20% | COC(=O)c1cc(-c2ncnn3cc(CN4C(=O)C5C(C4=O)C5(C)C)cc23)c2c(ccn2C[C@@H]2CNCCO2)c1 (stereo partly drawn) [Example 34, methyl 7-(6-((6,6-dimethyl-2,4-dioxo-3-azabicyclo[3.1.0]hexan-3-yl)methyl)pyrrolo[2,1-f][1,2,4]triazin-4-yl)-1-(((S)-morpholin-2-yl)methyl)-1H-indole-5-carboxylate 2,2,2-trifluoroacetate]
12 | 20 to 49% | Cc1cc(Cl)cc(-c2ncnn3cc(CN4C(=O)C5C(C4=O)C5(C)C)cc23)c1CN1CCC2(CC1)CNC2 (stereo not shown) [Example 102, 3-((4-(2-((2,7-diazaspiro[3.5]nonan-7-yl)methyl)-5-chloro-3-methylphenyl)pyrrolo[2,1-f][1,2,4]triazin-6-yl)methyl)-6,6-dimethyl-3-azabicyclo[3.1.0]hexane-2,4-dione hydrochloride]
13 | < 20% | CC1(C)C2C(=O)N(Cc3cc4c(-c5cc(Cl)ccc5N5CCNCC5)ncnn4c3)C(=O)C21 (stereo not shown) [Example 85, 3-((4-(5-chloro-2-(piperazin-1-yl)phenyl)pyrrolo[2,1-f][1,2,4]triazin-6-yl)methyl)-6,6-dimethyl-3-azabicyclo[3.1.0]hexane-2,4-dione hydrochloride]
14 | < 20% | CC1(C)C2C(=O)N(Cc3cc4c(-c5cc(C(=O)O)cc6ccn(C[C@@H]7CNCCO7)c56)ncnn4c3)C(=O)C21 (stereo partly drawn) [Example 47, 7-(6-((6,6-dimethyl-2,4-dioxo-3-azabicyclo[3.1.0]hexan-3-yl)methyl)pyrrolo[2,1-f][1,2,4]triazin-4-yl)-1-(((S)-morpholin-2-yl)methyl)-1H-indole-5-carboxylic acid hydrochloride]
15 | > 70% | Cc1cc(Cl)cc(-c2ncnn3cc(CN4C(=O)CN(C)C4=O)cc23)c1C[C@@H]1CNCCO1 (single isomer, unassigned) [Example 99, hydrochloride]
16 | 50 to 70% | CC1(C)C2C(=O)N(Cc3cc4c(-c5cc(Cl)cc6c5N(C5CCNC5)CC5CC65)ncnn4c3)C(=O)C21 (stereo not shown) [Example 92, 3-((4-(6-chloro-3-(pyrrolidin-3-yl)-1a,2,3,7b-tetrahydro-1H-cyclopropa[c]quinolin-4-yl)pyrrolo[2,1-f][1,2,4]triazin-6-yl)methyl)-6,6-dimethyl-3-azabicyclo[3.1.0]hexane-2,4-dione hydrochloride]
17 | > 70% | Cc1cc(Cl)cc(-c2ncnn3cc(CN4C(=O)C5C(C4=O)C5(C)C)cc23)c1NCC1CCNCC1 (stereo not shown) [Example 73, 3-((4-(5-chloro-3-methyl-2-((piperidin-4-ylmethyl)amino)phenyl)pyrrolo[2,1-f][1,2,4]triazin-6-yl)methyl)-6,6-dimethyl-3-azabicyclo[3.1.0]hexane-2,4-dione dihydrochloride]
18 | 50 to 70% | CC1(C)NC(=O)N(Cc2cc3c(-c4cc(Cl)cc5ccn(C[C@@H]6CNCCO6)c45)ncnn3c2)C1=O [Example 36, (S)-3-((4-(5-chloro-1-(morpholin-2-ylmethyl)-1H-indol-7-yl)pyrrolo[2,1-f][1,2,4]triazin-6-yl)methyl)-5,5-dimethylimidazolidine-2,4-dione hydrochloride]
19 | 50 to 70% | O=C1CN2CCC[C@H]2C(=O)N1Cc1cc2c(-c3cc(Cl)cc4ccn(C[C@@H]5CNCCO5)c34)ncnn2c1 (single isomer, unassigned) [Example 31, dihydrochloride]
20 | 20 to 49% | Cc1cc(Cl)cc(-c2ncnn3cc(Cn4c(=O)ccn(CC(=O)O)c4=O)cc23)c1C[C@@H]1CNCCO1 (single isomer, unassigned) [Example 125, hydrochloride]
21 | 20 to 49% | CC1(C)C2C(=O)N(Cc3cc4c(-c5cc(C(F)(F)F)cc6ccn(C7CCNC7)c56)ncnn4c3)C(=O)C21 (stereo not shown) [Example 5, 6,6-dimethyl-3-((4-(1-(pyrrolidin-3-yl)-5-(trifluoromethyl)-1H-indol-7-yl)pyrrolo[2,1-f][1,2,4]triazin-6-yl)methyl)-3-azabicyclo[3.1.0]hexane-2,4-dione 2,2,2-trifluoroacetate]
22 | 50 to 70% | Cc1cc(Cl)cc(-c2ncnn3cc(CN4C(=O)C5C(C4=O)C5(C)C)cc23)c1NCC1CCCNC1 (stereo not shown) [Example 79, 3-((4-(5-chloro-3-methyl-2-((piperidin-3-ylmethyl)amino)phenyl)pyrrolo[2,1-f][1,2,4]triazin-6-yl)methyl)-6,6-dimethyl-3-azabicyclo[3.1.0]hexane-2,4-dione dihydrochloride]
23 | < 20% | O=c1cc[nH]c(=O)n1Cc1cc2c(-c3cc(Cl)cc4ccn(CC5(F)CCNCC5)c34)nc(Cl)nn2c1 [Example 123, 3-((2-chloro-4-(5-chloro-1-((4-fluoropiperidin-4-yl)methyl)-1H-indol-7-yl)pyrrolo[2,1-f][1,2,4]triazin-6-yl)methyl)pyrimidine-2,4(1H,3H)-dione hydrochloride]
24 | 20 to 49% | CC1(C)C2C(=O)N(Cc3cc4c(-c5cc(Cl)cc6ccn(CC7CNCC(F)(F)C7)c56)ncnn4c3)C(=O)C21 (stereo not shown) [Example 26, 3-((4-(5-chloro-1-((5,5-difluoropiperidin-3-yl)methyl)-1H-indol-7-yl)pyrrolo[2,1-f][1,2,4]triazin-6-yl)methyl)-6,6-dimethyl-3-azabicyclo[3.1.0]hexane-2,4-dione dihydrochloride]

Row | Structure (SMILES) | inhibition at 1 µM
25 | Cc1cc(Cl)cc(-c2ncnn3cc(Cn4c(=O)ccn(C)c4=O)cc23)c1C1=CCNCC1 [Example 88, 3-((4-(5-chloro-3-methyl-2-(1,2,3,6-tetrahydropyridin-4-yl)phenyl)pyrrolo[2,1-f][1,2,4]triazin-6-yl)methyl)-1-methylpyrimidine-2,4(1H,3H)-dione hydrochloride] | < 20%
